The values below are quoted from earlier work in patent publication US6984640B1, “Antiparasitic artemisinin derivatives (endoperoxides)” (Bayer Aktiengesellschaft, priority 1998, dated 2006).

This data set relates to Neospora. The note with it: administered via drinking water; cited from earlier work.

For `Nc1ccc(S(=O)(=O)Nc2ncccn2)cc1` [Sulfadiazin], the “efficacy against neosporosis in experimentally infected mice” value is “effective in experimentally infected mice, only if the treatment was prophylactic”.
